Source: ChEMBL document CHEMBL1139813, “Synthesis and biological evaluation of amino-pyridines as androgen receptor antagonists for stimulating hair growth and reducing sebum production” (Bioorg Med Chem Lett, 2007)
Activity calls are given as the source filed them. The rule behind the calls is not given here.

Tests used:
Androgen receptor [1] = molecular target: T1, Androgen receptor (Homo sapiens, UniProt P10275); experiment: biochemical
T1 sequence (P10275 whole entry): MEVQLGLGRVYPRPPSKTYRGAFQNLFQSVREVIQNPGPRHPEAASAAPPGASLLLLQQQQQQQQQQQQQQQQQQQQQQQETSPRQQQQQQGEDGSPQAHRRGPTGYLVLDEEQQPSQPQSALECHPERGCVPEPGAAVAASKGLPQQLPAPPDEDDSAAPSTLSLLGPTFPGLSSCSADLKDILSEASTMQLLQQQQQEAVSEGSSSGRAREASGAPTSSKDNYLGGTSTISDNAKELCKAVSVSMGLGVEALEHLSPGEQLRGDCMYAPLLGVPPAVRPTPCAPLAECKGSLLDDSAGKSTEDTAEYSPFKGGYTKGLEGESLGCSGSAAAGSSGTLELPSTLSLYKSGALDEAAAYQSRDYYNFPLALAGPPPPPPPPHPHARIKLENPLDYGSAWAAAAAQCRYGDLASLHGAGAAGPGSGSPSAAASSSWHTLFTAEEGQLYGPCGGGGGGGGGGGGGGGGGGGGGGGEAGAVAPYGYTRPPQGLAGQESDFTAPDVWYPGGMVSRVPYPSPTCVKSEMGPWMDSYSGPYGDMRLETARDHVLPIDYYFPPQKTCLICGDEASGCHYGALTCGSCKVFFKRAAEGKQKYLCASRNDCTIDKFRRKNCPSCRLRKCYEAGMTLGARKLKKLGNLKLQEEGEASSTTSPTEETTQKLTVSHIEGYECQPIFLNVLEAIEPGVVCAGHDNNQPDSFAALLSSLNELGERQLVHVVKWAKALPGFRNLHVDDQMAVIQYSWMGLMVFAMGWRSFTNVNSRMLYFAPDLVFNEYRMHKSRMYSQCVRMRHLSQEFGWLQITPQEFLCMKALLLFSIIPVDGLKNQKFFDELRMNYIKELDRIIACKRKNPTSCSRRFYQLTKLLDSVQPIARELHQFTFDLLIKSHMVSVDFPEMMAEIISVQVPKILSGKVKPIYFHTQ
Description: Displacement of [3H]dihydrotestosterone from human androgen receptor expressed in Sf9 cells

Androgen receptor [2] = molecular target: T1, Androgen receptor
Description: Antagonist activity at human androgen receptor expressed in MDA-MB-453 cells

[3] = Clearance in Beagle dog plasma at 0.5 mg/kg, iv; format: ADME, organism-based, Canis lupus familiaris; parameters: dose 0.5 mg/kg, route intravenous
Mus musculus = experiment: Stimulation of hair growth in C3H/HeN mouse at 3% concentration administered for 5 days, bid per week for 4 weeks; format: functional, organism-based
Syrian golden hamster = experiment: Reduction in sebum production in syrian hamster ear model at 3% concentration administered for 5 days, bid per week for 2 weeks; format: functional, Mesocricetus auratus; parameters: scale not given: the % may be the effect or the level left

SMILES | IC50 (Androgen receptor [1]) | IC50 (Androgen receptor [2]) | clearance [3] | Activity (Mus musculus) | Activity (Syrian golden hamster)
C[C@@H](c1ccccc1)N(C)c1cc(C(F)(F)F)c(C#N)cn1 | 1700 nM | – | – | – | –
N#Cc1cnc(N2CCCCC2)cc1C(F)(F)F | 209 nM | 422 nM | – | – | –
N#Cc1cnc(N2CCC3CCCCC3C2)cc1C(F)(F)F (stereo not drawn) | 169 nM | 260 nM | – | – | –
CCC(C)N(C)c1cc(C(F)(F)F)c(C#N)cn1 (stereo not drawn) | 7 nM | > 1000 nM | – | – | –
CCCN(CCC)c1cc(C(F)(F)F)c(C#N)cn1 | 78 nM | > 1000 nM | – | – | –
C[C@H](c1ccccc1)N(C)c1cc(C(F)(F)F)c(C#N)cn1 | – | 45 nM | 40 mL/min/kg | Active | 83%
CC1(C)C(=O)N(c2ccc(C#N)c(C(F)(F)F)c2)C(=O)N1CCCCO [RU-58841] | – | – | – | – | 92%
CC1CCN(c2cc(C(F)(F)F)c(C#N)cn2)CC1 | 73 nM | 136 nM | – | – | –
C[C@@H](Nc1cc(C(F)(F)F)c(C#N)cn1)c1ccccc1 | 4930 nM | – | – | – | –
CC(c1ccccc1)N(C)c1cc(C(F)(F)F)c(C#N)cn1 (stereo not drawn) | – | 229 nM | – | – | –
